For one experiment, the system named is yeast cells. The conditions noted are these: 1 mM nitrite, light 3 doses of 6.4 J/cm^2.
For a further experiment, the system named is NT2 cells. As to the kind of experiment: Oxidative stress induced APP processing in NT2 cells. Format: cell-based. The conditions noted are these: for APP processing as assessed by Aβ1-42 production: FIG. 17. The text has this: Broadband light reverses oxidative stress induced APP processing to Aβ1-42. […] Broad band light (7.5 Joules total dose) reversed the oxidative stress affects back to control levels (FIG. 17).
Broadband light reverses oxidative stress induced APP processing to Aβ1-40. […] Broad band light (7.5 Joules total dose) reversed the oxidative stress affects back to control levels (FIG. 18).

A further experiment addresses T1, mitochondrial Cco (Mus musculus, UniProt P00397).
T1 construct: These experiments used mitochondria isolated from the cerebrum of 7-12 day old mice; from tissue; host or cells: mitochondria from mouse cerebrum (7-12 day old mice)
Description: Cco/NO activity (nitrite-dependent NO synthesis) in cerebrum mitochondria, NO electrode. The conditions noted are these: hypoxic conditions, ascorbate/TMPD as electron donor pair, cerebrum mitochondria of 7-12 day old mice. Format: biochemical. The text has this: We have studied Cco/NO activity in both human endothelial cells and mouse brain nervous tissue. All of the assays for Cco/NO activity were done in a closed chamber, as described elsewhere (Castello et al. 2006, Cell Metabolism 3, 277-287). Cells or mitochondria were allowed to respire and consume oxygen all of the oxygen in the chamber before the addition of nitrite, which initiated the reaction.
Results with mouse nerve cells. These experiments used mitochondria isolated from the cerebrum of 7-12 day old mice. Using the same assay we used for endothelial cell mitochondria, we assayed Cco/NO activity under hypoxic conditions with ascorbate/TMPD as an electron donor pair. […] To confirm that we had measured NO synthesis we added PTIO, an NO scavenger.

Where two headings read alike, the source gives them in different places.

Description for yeast cells: The effects of broad spectrum light on the expression of the nuclear COX genes for Cco and the overall level of cellular respiration were examined. Because cytochrome c oxidase is a major regulator of respiration and because the nuclear genes (COX) for cytochrome c oxidase are highly regulated by a variety of environmental factors and function to regulate the overall activity of Cco, their level of expression provides a useful measure for the long-term effects of light on Cco. Similarly, the rate of respiration per se provides a direct measure of the effects of light on the entire respiratory chain.
Yeast cells were grown in liquid media for three hours, which is equivalent to the time it takes for one cell division. […]
Light from a Broadband 50 watt Xenon/Halogen Floodlight was administered at the beginning of each hour for a total of 3 doses, each at 6.4 J/cm^2 (105 mW/cm^2). After 3 hours, cells were harvested and analyzed for measurement of gene expression (by quantitiative PCR), or respiration (by polarographic oxygen consumption). qPCR was performed with primers designed for COX of Cco subunits COX4, COX5a, COX5b, COX6, and COX8. Each sample was run in duplicate and gene expression was quantified by normalizing to PMAI, a yeast gene that is expressed at constant levels, irrespective of the environment in which cells are grown.

For `O=NO` [+Nitrite, nitrite], the figures for the “Oxygen Consumption” value in the experiment with yeast cells (Hypoxia (1% O2)) and with yeast cells (Normoxia) were 14.27 ± 0.26 nmol/min/mg cells and 15.21 ± 0.47 nmol/min/mg cells, respectively.
Turning to `CCCCCC(O)/C=C/C=O` (stereo not drawn) [FINE], the “APP processing as assessed by Aβ1-42 production” value with NT2 cells is “dramatic increases”. Also, in the experiment on NT2 cells (FIG. 18), the “APP processing as assessed by Aβ1-40 production” value is on record as “dramatic increases”.
Consider `OO` [H2O2], for which the “APP processing as assessed by Aβ1-42 production” value with NT2 cells is recorded as “dramatic increases”.
In the case of `CC1(C)N([O])C(c2ccccc2)=[N+]([O-])C1(C)C` [PTIO], the “Removal of the NO produced by mitochondrial Cco (NO scavenger)” value on mitochondrial Cco is “completely removes the NO produced”.

The values above are taken from US20160008627A1, “METHODS AND DEVICES FOR VISIBLE LIGHT MODULATION OF MITOCHONDRIAL FUNCTION IN HYPOXIA AND DISEASE” (Clarimedix Inc., priority 2008, published 2016).
